Data taken from US8211463B2, “Use of glycolipids as adjuvants” (Helmholtz-Zentrum Fuer Infektionsforschung GmbH, priority 2006, dated 2012).
Entries after “also recorded” stand apart in the source; their conditions may differ.

Key:
[1] = test system: IFNγ, IL-2 and IL-4 secreting splenocytes; assay: Elispot of cytokine-secreting splenocytes (IFNγ, IL-2, IL-4); type: in vivo, Balb/c mice; details: for spot forming units (SFU) secreting IFNγ / spot forming units (SFU) secreting IFNγ / cytokine secretion: i.n.; for spot forming units (SFU) secreting IFNγ / secretion of IFNγ, IL-2 and IL-4 (SFU) vs β-Gal alone: 10 μg glycolipid; for spot forming units (SFU) secreting IFNγ: MHC class I restricted β-Gal peptide 2 μg/ml, 24 h; for spot forming units (SFU) secreting IFNγ / cytokine secretion / secretion of IFNγ, IL-2 and IL-4 (SFU) vs control animals: 20 up to 30 μg glycolipid; for secretion of IFNγ, IL-2 and IL-4 (SFU) vs β-Gal alone / secretion of IFNγ, IL-2 and IL-4 (SFU) vs control animals: s.c. (parenteral)
Procedure: Co-administration of β-Gal with 10 μg glycolipids 1, 5 and 6 induced a strong cellular immune responses and enhanced levels of IFNγ, IL-2 and IL-4 in response to enhanced concentration of the β-Gal antigen in Balb/c mice. Balb/c mice were immunized by the i.n. or s.c. route with β-Gal alone or together with glycolipids 1, 5 and 6 three times at 2-wk intervals. 10 days after the final immunization, the immunized mice were sacrificed. Splenocytes of mice immunized by the i.n. (FIG. 12) and s.c. (FIG. 13) route were collected and cultured with different concentrations of the antigen. A total of 5×10^6 cells/ml spleen cells were cultured with 2 μg/ml of the MHC cI.I restricted β-Gal peptide (IFNγ) for 24 h and the β-Gal-Protein (IL-2 and 4) for 48 h. IFNγ producing CD8+ T cells were analyzed using BD Elispot kit according to the manufacturer's instructions. […] Bars represent Spot forming units of 10^6 splenocytes with subtracted background mean SFU±SE in each group. Each group consists of five mice. Data are representative of three separate experiments.
Co-administration of β-Gal with 20 up to 30 μg glycolipids 5 and 6 induced strong cellular immune responses and enhanced levels of IFNγ, IL-2 and IL-4 in response to enhanced concentration of the β-Gal antigen in Balb/c mice. Balb/c mice were immunized by the i.n. or s.c. route with β-Gal alone or together with glycolipids 5 and 6 three times at 2-wk intervals. 10 days after the final immunization, the immunized mice were sacrificed. Splenocytes of mice immunized by the i.n. (FIG. 14) and s.c. (FIG. 15) route were collected and cultured with different concentrations of. A total of 5×10^6 cells/ml spleen cells were cultured with 2 μg/ml of the MHC class I restricted β-Gal peptide (IFNγ) for 24 h and the β-Gal-Protein (IL-2 and 4) for 48 h. IFNγ producing CD8+ T cells were analyzed using BD Elispot kit according to the manufacturer's instructions. […] Bars represent Spot forming units of 10^6 splenocytes with subtracted background mean SFU±SEM in each group. Each group consists of five mice. Data are representative of three separate experiments.
Experimental protocol: Spleens from vaccinated mice were removed and pooled for analysis of cellular immune responses. The protocol for vaccination was identical to the protocol described in Example 2. Cells were grown in RPMI 1640 supplemented with 10% fetal calf serum, 100 U/ml of penicillin, 50 μg/ml of streptomycin, 5×10^−5 M 2-mercaptoethanol and 1 mM L-glutamine (GIBCO BRL, Karlsruhe, Germany) and maintained at 37° C. in a humidified 5% CO2 atmosphere. Lymph node and spleen cell suspensions were adjusted to 5×10^6 cells/ml in complete medium, cells were seeded with 100 μl per well in a flat-bottomed 96-well microtiter plate (Nunc) and plates were incubated for 4 days in the presence of different concentrations of soluble β-Gal.
Splenocytes of mice immunized by the i.n. (FIG. 12) and s.c. (FIG. 13) route were collected and cultured with different concentrations of the antigen. A total of 5×10^6 cells/ml spleen cells were cultured with 2 μg/ml of the MHC cI.I restricted β-Gal peptide (IFNγ) for 24 h and the β-Gal-Protein (IL-2 and 4) for 48 h. IFNγ producing CD8+ T cells were analyzed using BD Elispot kit according to the manufacturer's instructions. […] Bars represent Spot forming units of 10^6 splenocytes with subtracted background mean SFU±SE in each group. Each group consists of five mice. Data are representative of three separate experiments.

[2] = Tolerability of co-administered glycolipids: body weight and behaviour tested daily; type: in vivo
Procedure: The body weight and the behaviour of the animals were tested daily. The Balb/c mice were immunized by the mucosal (i.n.) or parenteral (s.c.) route with β-Gal alone or together with glycolipids 1, 5 and 6 three times at 2-wk intervals (day 1, 14 and 28). 10 days after the final immunization (day 38), the immunized mice were sacrificed.
Experimental protocol: six-eight weeks-old female BALB/c (H-2d) mice were purchased from Harlan Winkelmann GmbH (Borchen, Germany) and treated in accordance with local and European Community guidelines. Groups of 5 mice each were immunized on day 01, 14 and 28 with 30 μg of β-Gal (Boehringer, Mannheim, Germany), alone or with 10 μg of glycolipids 1, 5, or 6, respectively, see FIG. 2. For intranasal (i.n.) immunization, 10 μl were applied to each naris, whereas for the s.c. injection β-Gal with or without glycolipids 1, 5 or 6, respectively, was resuspended in a volume of 50 μl PBS per animal. Serum samples were collected at day 38 after immunization and stored at −20° C. prior to determination of β-Gal-specific antibodies. 96-well Nunc-Immuno MaxiSorp assay plates (Nunc, Roskilde, Denmark) were coated with 100 μl of β-Gal (Boehringer, Mannheim, Germany) at 5 μg/ml in 0.05 M carbonate buffer (pH 8.2) per well. Serial two-fold dilutions of sera or lavages in PBS with 1% BSA and 0.05% Tween 20 were added (100 μl/well), and plates incubated for 16 h at 37° C. After washing, biotinylated γ-chain-specific goat anti-mouse IgG (Sigma Chemie, Deisenhofen, Germany) was added, and plates were incubated for an additional 1 h at 37° C. After four washes, 100 μl of peroxidase-conjugated streptavidin (Pharmingen) was added to cells and plates incubated at 37° C. for 30 min. After four washes, reactions were developed with ABTS in 0.1 M citrate-phosphate buffer (pH 4.35) containing 0.01% H2O2.

[3] = co-administered with 30 μg β-Gal, i.n. and s.c., day 1, 14 and 28

Row | Compound | spot forming units (SFU) secreting IFNγ [1] | spot forming units (SFU) secreting IFNγ / cytokine secretion [1] | secretion of IFNγ, IL-2 and IL-4 (SFU) vs β-Gal alone [1] | secretion of IFNγ, IL-2 and IL-4 (SFU) vs control animals [1] | toxic side effects (body weight and behaviour) [2, 3] | toxic side effects (body weight and behaviour) ([2]; mouse, in vivo, sc)
1 | CCCCCCCCCCCCCCOCC(COCCCCCCCCCCCCCC)O[C@@H]1O[C@H](CO[C@H]2O[C@H](CO)[C@H](O)[C@H](O)[C@H]2O)[C@@H](O)[C@H](O)[C@H]1O [glycolipid 6, 1,3-di-O-tetradecyl-2-O-[6′-O-(α-D-galactopyranosyl)-β-D-glucopyranosyl]-sn-glycerol] | only a weak secretion | reduced cytokine secretion | only weak enhanced secretion | only a minor effect | no toxic side effects; also recorded: no toxic side effects or changes in their behaviour | –
2 | CCCCCCCCCCCCCCOCC(COCCCCCCCCCCCCCC)O[C@@H]1O[C@H](CO)[C@@H](O[C@H]2O[C@H](CO)[C@@H](O)[C@H](O)[C@H]2O)[C@H](O)[C@H]1O [glycolipid 5, 1,3-Di-O-tetradecyl-2-O-[4′-O-(α-D-glucopyranosyl)-β-D-glucopyranosyl]-sn-glycerol] | enhanced expression | enhanced expression | only weak enhanced secretion | only a minor effect | no toxic side effects; also recorded: no toxic side effects or changes in their behaviour | –
3 | CCCCCCCC/C=C\CCCCCCCCOCC(COCCCCCCCC/C=C\CCCCCCCC)O[C@@H]1O[C@H](CO)[C@@H](O[C@H]2O[C@H](CO)[C@@H](O)[C@H](O)[C@H]2O)[C@H](O)[C@H]1O (relative stereo) [glycolipid 1, 1,3-Di-O[cis-9-octadecenyl]-2-O-[4′-O-(α-D-glycopyranosyl)-β-D-glycopyranosyl]-sn-glycerol] | only a weak secretion | – | only weak enhanced secretion | – | – | no toxic side effects; also recorded: no toxic side effects or changes in their behaviour
